Data reported in patent US7109244B2, “Compositions and methods comprising long-chain, straight-chain 2-amino-3-hydroxyalkanes” (priority 1997, dated 2006).
Where two headings read alike, the source gives them in different places.

Legend:
CV-1 = assay: expanded in vitro screen, CV-1 normal cell line; type: cell-based, monkey; conditions: Primates, CV-1, Kidney fibroblasts
Procedure: (§1) An expanded in vitro screen was performed of spisulosine 285 against a series of different cell lines.

[1] = test system: L1210 murine lymphocytic leukemia cells; assay: L1210 cytotoxicity assay (inhibition of growth); type: cell-based
Procedure: The morphological effect was usually measured 30–35 h after the start of the assay and again about 24 h later, while the cytotoxicity was determined when the number of cells in the controls reached approximately 8000, usually in 3 days after the assay was begun. It should be noted that the pointed cells were live cells and that they were counted as such for the cytotoxicity reading. […] All morphologically-changed cells were counted in the pointed cell percentage.
Cytotoxicity assays against L1210 murine lymphocytic leukemia cells were performed by dissolving the samples in methanol and/or hexane were applied to the dry assay wells and the solvent was allowed to evaporate. Cells (1000) were added in minimum essential medium (MEM, 1 ml) and incubated 37° C. Inhibition of growth was recorded as the estimated percentage of living cells in sample wells versus that in control wells.

U-937 = assay: expanded in vitro screen, U-937; type: cell-based; conditions: Homo sapiens; U-937, Lymphoma
Procedure: as §1

MEL-28 = assay: in vitro tumor cell line activity, MEL-28; type: cell-based
RAMOS = assay: expanded in vitro screen, RAMOS; type: cell-based; conditions: Homo sapiens, Burkitts
Procedure: as §1

Rho protein = Rho protein electrophoresis / Western blot and subcellular fractionation (Example C); type: cell-based; conditions: 0.5 mM, 20 hour
Procedure: The small GTP binding protein Rho is involved in the formation of actin-myosin “stress fibers” (Hall, A., Science, 279, 1998, p 509–514). Therefore, the electrophoretic mobility and cellular distribution of Rho was analyzed in cells treated with spisulosine 285.
FIG. 5 is an electrophoretogram of Example C. In panel A, equivalent amounts of protein from a cell extract from untreated (a) or from 0.5 mM spisulosine 285 treated (20 hour) cells (b) were fractionated by gel electrophoresis and blotted onto nitrocellulose paper to analyze the amount of the Rho protein.
In panel B the experiment was carried out as above, except that the homogenate was fractionated into a particulate (membrane, “M”) fraction and soluble (“S”) fraction.
Subcellular fractionation was carried out by placing cells in a hypotonic buffer (0.25 M sucrose, 20 mM HEPES pH 7.4, 2 mM EDTA, 1 mM PMSF, […] aprotinin, leupeptine and pestatine), and lysing them with a Dounce. The homogenate was first centrifuged at 750 g for 5 minutes to remove nuclei and unbroken cells, and the supernatant was further centrifuged at 30,000 g for 1 hour (4° C.) to isolate a pelleted particulate fraction (putative membrane fraction) and a supernatant. The different fractions were characterised by electrophoresis and Western Blotting using an antibody against the Rho protein.

Hs 746T = assay: expanded in vitro screen, Hs 746T; type: cell-based; conditions: Homo sapiens, Hs746T, Stomach, solid
Procedure: as §1

HL60 = assay: expanded in vitro screen, HL60; type: cell-based; conditions: Homo sapiens, HL-60; HL60, Leukemia
Procedure: as §1

MX-1 = assay: expanded in vitro screen, MX-1; type: cell-based; conditions: Homo sapiens, MX1; MX-1, Mammary, solid
Procedure: as §1

[2] = test system: human renal cancer (MRI-H-121); assay: xenograft model of human renal cancer; type: in vivo; conditions: for % T/C / Comments: intraperitoneal
Procedure: Spisulosine 285 was tested in in vivo studies against xenograft models of human prostate cancer (PC-3) and human renal cancer (MRI-H-121). These models use subcutaneously implanted solid human tumors that grow and increase in volume over time. The mean volume of tumor growth in control animals provides the basis for comparison. […] A level of activity that is less than 40% T/C is considered statistically significant. The doses of spisulosine used were given at the maximum tolerated, non lethal dose (MTD), ½ MTD and ¼ MTD. Delivery of the drug was by the intraperitoneal route.

K562 = assay: expanded in vitro screen, K562; type: cell-based; conditions: Homo sapiens; K562, Leukemia
Procedure: as §1

SW684 = assay: expanded in vitro screen, SW684; type: cell-based; conditions: Homo sapiens; SW684, Fibrosarcoma
Procedure: as §1

A-549 = assay: in vitro tumor cell line activity, A-549; type: cell-based

IC50 (U-937): 0.0196 nM
IC50 (RAMOS): 0.0482 nM
IC50 (Hs 746T): 0.00789 nM
IC50 (HL60): 0.0085 nM
IC50 (MX-1): 0.0389 nM
IC50 (K562): 0.0157 nM
IC50 (SW684): 1.05 nM
Structure (SMILES): CCCCCCCCCCCCCCC[C@@H](O)[C@H](C)N [Spisulosine 285, (2S,3R)-2-Amino-3-octadecanol]
IC50 (CV-1): 0.0276 nM
cytotoxicity at 0.01 µg/mL ([1]; Mus musculus, L1210, 0.01 μg/ml): 45%
cytotoxicity at […] ([1]; Mus musculus, L1210, 0.025 μg/ml): 90%
cytotoxicity at 0.05 µg/mL ([1]; Mus musculus, L1210, 0.05 μg/ml): 96%
cytotoxicity at 0.1 µg/mL ([1]; Mus musculus, L1210, 0.1 μg/ml): 99%
inhibition at 0.1 µg/mL ([1]; Mus musculus, L1210, 0.1 μg/ml, read-out: % Inhibitiion): 63%
cytotoxicity at […] ([1]; Mus musculus, L1210, 0.25 μg/ml): 99%
inhibition at […] ([1]; Mus musculus, L1210, 0.25 μg/ml, read-out: % Inhibitiion): 96%
cytotoxicity at 0.5 µg/mL ([1]; Mus musculus, L1210, 0.5 μg/ml): 100%
inhibition at 0.5 µg/mL ([1]; Mus musculus, L1210, 0.5 μg/ml, read-out: % Inhibitiion): 99%
inhibition at 1 µg/mL ([1]; Mus musculus, L1210, 1 μg/ml, read-out: % Inhibitiion): 100%
inhibition at […] ([1]; Mus musculus, L1210, 2.5 μg/ml, read-out: % Inhibitiion): 100%
inhibition at 5 µg/mL ([1]; Mus musculus, L1210, 5 μg/ml, read-out: % Inhibitiion): 100%
L1210 cytotoxicity (in words) ([1]; listed as 1): showed both cytotoxicity and morphological alteration
active against tumor cell line in vitro (concentration) (MEL-28): 0.05 mg/mL
amount or mobility of Rho (Rho protein): No significant change
proportion of Rho associated with the particulate fraction (Rho protein): decrease
effect on tumour growth (in words) ([2]; effects continuing up to a few weeks after the last dose): reduces the growth of the human renal cancer
% T/C ([2]; total dose 2.499 mg/kg, day 15): 43%
% T/C ([2]; total dose 5.010 mg/kg, day 11): 35%
Comments ([2]; total dose 5.010 mg/kg, day 11): inhibition (partial
% T/C ([2]; total dose 9.990 mg/kg, day 11): 28%
Comments ([2]; total dose 9.990 mg/kg, day 11): inhibition (partial
active against tumor cell line in vitro (concentration) (A-549): 0.05 mg/mL
